In one assay the target is T1, DOR (Rattus norvegicus, UniProt P33533).
T1 construct: from tissue
As to the kind of experiment: Opioid receptor binding, DOR, rat brain membranes.

For another assay, the target named is T2, KOR (Cavia porcellus, UniProt P41144).
T2 construct: from tissue
As to the kind of experiment: Opioid receptor binding, KOR, guinea pig brain membranes.

The target in another assay is T3, MOR (Rattus norvegicus, UniProt P33535).
T3 construct: from tissue
The assay can be described thus: Opioid receptor binding, MOR, rat brain membranes.

Where [1] appears, read: Binding Ki (nM) DOR, in vitro binding assay, rat brain membranes.
The mark [2] stands for this setting: Binding Ki (nM) KOR, in vitro binding assay, guinea pig brain membranes.
[3] abbreviates: Binding Ki (nM) MOR, in vitro binding assay, rat brain membranes.
[4] abbreviates: in vitro binding assay, rat brain membranes, read-out: Binding Ki (nM) DOR.
Where [5] appears, read: in vitro binding assay, guinea pig brain membranes, read-out: Binding Ki (nM) KOR.
[6] abbreviates: in vitro binding assay, rat brain membranes, read-out: Binding Ki (nM) MOR.
The mark [7] stands for this setting: Binding Ki DOR, Table 1-4, rat brain membranes.
[8] abbreviates: Binding Ki KOR, Table 1-4, guinea pig brain membranes.
The mark [9] stands for this setting: Binding Ki MOR, Table 1-4, rat brain membranes.
Setting [10] is: Binding Ki DOR, Table 2-6, rat brain membranes.
Setting [11] is: Binding Ki KOR, Table 2-6, guinea pig brain membranes.
Where [12] appears, read: Binding Ki MOR, Table 2-6, rat brain membranes.

Where two headings read alike, the source gives them in different places.

T1 sequence (P33533 whole entry): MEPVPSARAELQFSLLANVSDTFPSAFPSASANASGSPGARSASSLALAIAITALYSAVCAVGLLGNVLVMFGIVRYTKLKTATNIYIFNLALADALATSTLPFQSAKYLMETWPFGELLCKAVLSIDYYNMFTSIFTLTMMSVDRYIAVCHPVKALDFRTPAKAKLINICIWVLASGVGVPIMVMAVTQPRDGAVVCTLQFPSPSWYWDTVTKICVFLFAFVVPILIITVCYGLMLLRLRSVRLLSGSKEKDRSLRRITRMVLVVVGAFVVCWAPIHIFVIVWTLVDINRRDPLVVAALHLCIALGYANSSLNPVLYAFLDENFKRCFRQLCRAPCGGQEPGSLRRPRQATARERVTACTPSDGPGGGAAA
T3 sequence (P33535 whole entry): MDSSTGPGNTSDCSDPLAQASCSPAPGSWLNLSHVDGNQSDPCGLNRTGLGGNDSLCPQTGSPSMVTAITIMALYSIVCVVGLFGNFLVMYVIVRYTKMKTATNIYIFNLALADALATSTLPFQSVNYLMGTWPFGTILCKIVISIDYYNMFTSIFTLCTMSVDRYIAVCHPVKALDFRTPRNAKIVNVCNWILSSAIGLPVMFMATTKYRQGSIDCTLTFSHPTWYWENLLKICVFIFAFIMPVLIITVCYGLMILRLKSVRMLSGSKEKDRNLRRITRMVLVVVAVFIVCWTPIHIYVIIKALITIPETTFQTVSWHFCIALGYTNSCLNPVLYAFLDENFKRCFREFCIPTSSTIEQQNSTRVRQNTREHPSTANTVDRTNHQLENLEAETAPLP
T2 sequence (P41144 whole entry): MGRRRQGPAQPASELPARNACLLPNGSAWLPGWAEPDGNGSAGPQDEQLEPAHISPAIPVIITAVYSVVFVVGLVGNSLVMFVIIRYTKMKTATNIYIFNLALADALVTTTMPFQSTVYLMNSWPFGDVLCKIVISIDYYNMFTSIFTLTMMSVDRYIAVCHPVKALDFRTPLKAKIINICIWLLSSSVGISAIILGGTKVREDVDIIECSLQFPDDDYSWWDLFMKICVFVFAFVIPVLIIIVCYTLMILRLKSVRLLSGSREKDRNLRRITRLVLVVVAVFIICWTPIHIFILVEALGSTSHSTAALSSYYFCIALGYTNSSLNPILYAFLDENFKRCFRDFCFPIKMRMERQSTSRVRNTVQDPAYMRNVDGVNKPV

In the case of `CO[C@@]12CC[C@H](NCCCC(=O)OC(C)(C)C)[C@@H]3Oc4c(O)ccc5c4[C@@]31CCN(C)[C@@H]2C5` [15-t-Bu ester], the Ki turned out to be 7.99 nM at DOR (setting [1]), 8.82 nM on KOR (setting [2]) and 0.22 nM on MOR (setting [3]).

For `CC[C@H](N[C@@H]1CC[C@@]2(OC)[C@H]3Cc4ccc(O)c5c4[C@@]2(CCN3CC2CC2)[C@H]1O5)C(=O)O` [Compound 79], the Ki on DOR (Binding Ki DOR, Table 1-6, rat brain membranes) was 6.2 nM; at KOR (Binding Ki KOR, Table 1-6, guinea pig brain membranes), 19.1 nM; on MOR (Binding Ki MOR, Table 1-6, rat brain membranes), 3.39 nM.

Regarding `CO[C@@]12CC[C@@H](N[C@@H](CCCCN)C(=O)O)[C@@H]3Oc4c(O)ccc5c4[C@@]31CCN(C)[C@@H]2C5` [Compound 39], the Ki at DOR (Table 1-4, rat brain membranes, read-out: Binding Ki DOR) is 3.34 nM; on DOR (setting [4]), 3.34 nM; at KOR (Table 1-4, guinea pig brain membranes, read-out: Binding Ki KOR) it was 33.7 nM; at KOR (setting [5]), 33.7 nM; at MOR (Table 1-4, rat brain membranes, read-out: Binding Ki MOR), 0.53 nM; on MOR (setting [6]), 0.53 nM.

In the case of `CO[C@@]12CC[C@@H](NCCC(=O)OC(C)(C)C)[C@@H]3Oc4c(O)ccc5c4[C@@]31CCN(C)[C@@H]2C5` [22-t-Bu ester], the Ki was determined as 0.23 nM at DOR (setting [1]), 7.54 nM at KOR (setting [2]) and 0.35 nM at MOR (setting [3]).

`CO[C@@]12CC[C@@H](N[C@@H](CC(C)C)C(=O)O)[C@@H]3Oc4c(O)ccc5c4[C@@]31CCN(C)[C@@H]2C5` [Compound 41]: the inhibition constant Ki at DOR (setting [1]) was 1.01 nM; on DOR (setting [7]), 1.01 nM; on KOR (setting [2]), 297 nM; on KOR (setting [8]) it was 297 nM; on MOR (setting [3]), 1.32 nM; on MOR (setting [9]) it was 1.32 nM.

As to `CO[C@@]12CC[C@@H](N[C@@H](CCC(N)=O)C(=O)O)[C@@H]3Oc4c(O)ccc5c4[C@@]31CCN(C)[C@@H]2C5` [Compound 18], the Ki on DOR (setting [1]) was 4.87 nM; at DOR (setting [7]) it was 4.87 nM; on KOR (setting [2]), 290 nM; on KOR (setting [8]), 290 nM; at MOR (setting [3]), 2.48 nM; on MOR (setting [9]), 2.48 nM.

On to `CCO[C@@]12CC[C@H](N[C@@H](Cc3ccccc3)C(=O)O)[C@@H]3Oc4c(O)ccc5c4[C@@]31CCN(CC1CC1)[C@@H]2C5` [Compound 55], for which the results for the Ki on DOR (setting [10]), on KOR (setting [11]) and on MOR (setting [12]) were 0.7 nM, 2.6 nM and 0.35 nM, respectively.

Take `CCCCCCCCOC(=O)CN[C@@H]1CC[C@@]2(OC)[C@H]3Cc4ccc(O)c5c4[C@@]2(CCN3C)[C@H]1O5` [HS731-nOc ester]: the Ki at DOR (setting [4]) came out at 2.71 nM; at KOR (setting [5]) it was 3.87 nM; at MOR (setting [6]) it was 2.56 nM.

Turning to `CO[C@@]12CC[C@@H](N[C@@H](CCSC)C(=O)O)[C@@H]3Oc4c(O)ccc5c4[C@@]31CCN(C)[C@@H]2C5` [Compound 24], the inhibitory constant (Ki) on DOR (setting [1]) is 2.4 nM; at DOR (setting [7]) it was 2.4 nM; on KOR (setting [2]) it was 468 nM; on KOR (setting [8]), 468 nM; at MOR (setting [3]) it was 3.88 nM; at MOR (setting [9]) it was 3.88 nM.

As to `CO[C@@]12CC[C@@H](N[C@@H](C(=O)OC(C)(C)C)C(C)C)[C@@H]3Oc4c(O)ccc5c4[C@@]31CCN(CC1CC1)[C@@H]2C5` [71-tBu ester], the inhibitory constant (Ki) at DOR (setting [10]) was 0.24 nM; at KOR (setting [11]), 15.2 nM; on MOR (setting [12]) it was 1.94 nM.

On to `CC[C@H](C)[C@H](N[C@@H]1CC[C@@]2(OC)[C@H]3Cc4ccc(O)c5c4[C@@]2(CCN3CC2CC2)[C@H]1O5)C(=O)O` [Compound 78], for which the figures for the Ki at DOR (setting [10]), at KOR (setting [11]) and on MOR (setting [12]) were 1.44 nM, 9.49 nM and 1.62 nM, respectively.

On to `CO[C@@]12CC[C@H](N[C@@H](CC(C)C)C(=O)OC(C)(C)C)[C@@H]3Oc4c(O)ccc5c4[C@@]31CCN(CC1CC1)[C@@H]2C5` [76-tBu ester], for which the Ki at DOR (setting [10]) is 0.092 nM; at KOR (setting [11]) it was 0.8 nM; at MOR (setting [12]) it was 0.13 nM.

Consider `CCO[C@@]12CC[C@@H](NCC(=O)OC(C)(C)C)[C@@H]3Oc4c(O)ccc5c4[C@@]31CCN(C)[C@@H]2C5` [6-t-Bu ester], for which the Ki was found to be 0.57 nM at DOR (setting [4]), 34.1 nM at KOR (setting [5]) and 0.81 nM at MOR (setting [6]).

Turning to `CO[C@@]12CC[C@@H](N[C@@H](CCSC)C(=O)OC(C)(C)C)[C@@H]3Oc4c(O)ccc5c4[C@@]31CCN(C)[C@@H]2C5` [24-t-Bu ester], the figures for the Ki at DOR (setting [1]), at KOR (setting [2]) and on MOR (setting [3]) were 0.81 nM, 166 nM and 1.83 nM, respectively.

(Values after patent publication US20170217976A1, “6-(AMINO ACID)-MORPHINAN DERIVATIVES IN COMBINATION WITH PERMEATION […] FOR USE AS AN ORALLY, […], TRA[…] NASALLY AD[…]” (C[…], priority 2014, published 2017).)
